Read-outs that look alike come from different tables or passages of the source.
Experiments:
Format in all cases: cell-based
[1] = test system: Poly/Mono-ADP Ribose in U2OS cells; experiment: PAR in cell western assay (parylation) in U2OS cells; conditions: read-out: Parylation (U2OS)
Method: U2OS cells are seeded at 2667 cells per well in 24 ul medium into poly-D lysine-coated 384 well plate and incubated in the TC incubator for O/N
The next day, test comps are diluted in a source plate and 6 μL of the diluted comp is added to the cell plate; mixed well and incubated for 6 hrs. DNA damage is induced with 2 mM H2O2 for 10 min. After discarding the medium, cells are fixed in ice cold Methanol at for 20 min at −20C. After a wash step at room temperature, cells are permeabilized with 0.05% NP-40 in PBS for 10 min, followed by wash steps. Cells are blocked with 1% BSA, at room temperature for 1 hr. Cells are stained with anti mono/polyADP ribose antibody (E6F6A, Cell signaling, 1:5000) in 1×PBS/1% BSA/0.05% Tween o/n at 4C.
Next Day, cells are washed and incubated with anti-Rabbit 800CV (Licor antibody, 1:500) and CellTag 700 (Licor, 1:800) in 1×PBS/1% BSA/0.05% Tween for 1 h. After washing, plates are scanned using LICOR and are quantified.
Parylation inhibition is reported as % control inhibition.
(§1) The letter codes for the PARP1-enzyme assay include: A (<1 nM), B (>1-10 nM), C (>10-100 nM), D (>100-1000 nM), E (>1000 nM), and “-” is not tested. The letter codes for the PARP trapping assay, and parylation assay include: A (<10 nM), B (>10-100 nM), C (>100-1000 nM), […], E (>10000 nM), and “-” is not tested.

HCC1806 cells = experiment: Cell proliferation assay (HCC1806); conditions: 7 days
Method: (§2) Cells are counted, diluted to desired density and 40 μL of cell suspension is added into each 384-well tissue-culture treated plates. Plates are incubated in Tissue Culture incubator at 37° C./5% C02 overnight.
(§3) Next day, 40 nl test compounds that are prepared from source plates are transferred to the seeded cells from overnight. Plates are incubated at 37° C./5% C02 for a total of 7 days. After 7-day incubation, plates are equilibrated to room temperature and 30 ul of Cell Counting-Lite is added to each well for a 30 min incubation followed by reading on EnVision.
(§4) The letter codes for the cell proliferation assay in A2780, HCC1806, and MDA-MB-436 cells include: A (<10 nM), B (>10-100 nM), C (>100-1000 nM), D (>1000-10000 nM), E (>10000 nM), and “-” is not tested.

MDA-MB-436 cells = experiment: Cell proliferation assay (MDA-MB-436); conditions: 7 days
Method: as §2, §3, §4

A2780 cells = experiment: Cell proliferation assay (A2780); conditions: 7 days
Method: as §2, §3, §4

PARP1 = PARP1 (Homo sapiens, UniProt P09874); experiment: PARP trapping assay in U2OS cells; parameters: endogenous in cells; host or cells: U2OS; conditions: U2OS cells, MMS, 4 hrs; read-out: PARP Trapping (U2OS)
Sequence of PARP1 (P09874 whole entry): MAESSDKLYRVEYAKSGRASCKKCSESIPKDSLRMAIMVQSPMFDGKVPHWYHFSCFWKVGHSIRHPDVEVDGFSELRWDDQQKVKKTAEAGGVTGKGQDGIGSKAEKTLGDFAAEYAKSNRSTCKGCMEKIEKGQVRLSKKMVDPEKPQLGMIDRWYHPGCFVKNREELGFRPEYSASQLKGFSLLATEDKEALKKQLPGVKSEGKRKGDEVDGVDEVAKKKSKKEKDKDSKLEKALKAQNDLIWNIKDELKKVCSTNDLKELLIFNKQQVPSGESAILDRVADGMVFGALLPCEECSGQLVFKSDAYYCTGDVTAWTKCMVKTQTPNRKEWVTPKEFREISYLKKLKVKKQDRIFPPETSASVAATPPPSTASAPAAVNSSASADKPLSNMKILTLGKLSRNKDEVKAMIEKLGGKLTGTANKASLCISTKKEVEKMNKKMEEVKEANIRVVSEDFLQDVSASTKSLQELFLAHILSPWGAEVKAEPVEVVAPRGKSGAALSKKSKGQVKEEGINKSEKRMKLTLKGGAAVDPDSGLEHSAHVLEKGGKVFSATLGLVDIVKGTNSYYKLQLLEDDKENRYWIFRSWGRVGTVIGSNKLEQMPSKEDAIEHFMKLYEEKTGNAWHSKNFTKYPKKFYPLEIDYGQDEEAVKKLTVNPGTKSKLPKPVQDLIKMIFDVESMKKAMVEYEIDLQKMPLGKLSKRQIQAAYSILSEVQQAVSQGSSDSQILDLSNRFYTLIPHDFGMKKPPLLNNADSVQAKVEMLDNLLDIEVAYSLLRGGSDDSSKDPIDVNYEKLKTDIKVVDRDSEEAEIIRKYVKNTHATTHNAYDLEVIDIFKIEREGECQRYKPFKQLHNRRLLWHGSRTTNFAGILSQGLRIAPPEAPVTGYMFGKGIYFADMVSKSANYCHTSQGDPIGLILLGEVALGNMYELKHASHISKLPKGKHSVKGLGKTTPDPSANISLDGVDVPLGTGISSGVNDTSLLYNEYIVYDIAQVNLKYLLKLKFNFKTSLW
Method: U2OS cells are seeded at 15,000 cells/well in 90 ul medium and incubated in the TC incubator for overnight.
Next day, test compounds are prepared in a source plate along with addition of DNA damage reagent MMS simultaneously and 10 ul of the diluted mixture is added to the cell plate and incubated for 4 hrs under T/C conditions.
After 4 hrs, following aspiration and washing, add 100 ul of cold cytoskeleton removal buffer (0.5% Triton X-100) and incubated for 10 min. At the end of incubation, slowly the buffer is removed, and cells are fixed with ice cold MeOH for 15 min at −20C. Followed by wash steps, cells are blocked with 1×PBS/3% BSA/0.05% Tween for 1 h at room temperature.
Cells are stained with anti PARP1 antibody (abeam ab227244, 1:1000), in 1×PBS/1% BSA overnight at 4C.
Wash and add DAPI, scan cells in Celigo.
Data Analysis: DAPI staining is used to segment nuclei and AF488 fluorescence intensity per nucleus is measured.
as §1

[2] = Homo sapiens, U2OS cells, 6 hrs, 2 mM H2O2

Row | Structure (SMILES) | IC50 [1, 2] | IC50 (HCC1806 cells; Homo sapiens, 168 h) | IC50 (MDA-MB-436 cells; Homo sapiens, 168 h) | IC50 (A2780 cells; Homo sapiens, 168 h) | IC50 (PARP1) | IC50 ([1]; U2OS cells, 6 hrs, 2 mM H2O2) | IC50 (HCC1806 cells) | IC50 (MDA-MB-436 cells) | IC50 (A2780 cells) | IC50 ([1]; Homo sapiens, U2OS, 6 h)
1 | O=C(CN1CCN(CC2CCN(C(=O)c3c(F)cc(-c4cnccn4)cc3F)CC2)CC1)N1CCN(C(=O)c2cc(Cc3n[nH]c(=O)c4ccccc34)ccc2F)CC1 [Compound I-739] | < 10 nM | 100 to 1000 nM | < 10 nM | 100 to 1000 nM | 10 to 100 nM | – | – | – | – | –
2 | CC(C)(C)OC(=O)N[C@@H](C(=O)NC12CCC(CN3CCC(C(=O)N4CCN(C(=O)c5cc(Cc6n[nH]c(=O)c7ccccc67)ccc5F)CC4)CC3)(CC1)OC2)C1CCCCC1 [Compound I-993] | – | – | – | – | 10 to 100 nM | 10 to 100 nM | 10 to 100 nM | < 10 nM | 10 to 100 nM | –
3 | CC(C)(C)C(=O)N1CCC[C@@H](c2cccc(C(=O)N[C@@H](C(=O)N3C4CCC3CC(OC3CCN(CC(=O)N5CCN(C(=O)c6cc(Cc7n[nH]c(=O)c8ccccc78)ccc6F)CC5)CC3)C4)C3CCCCC3)c2F)C1 (stereo partly drawn) [Compound I-971] | 10 to 100 nM | 100 to 1000 nM | < 10 nM | 10 to 100 nM | 10 to 100 nM | – | – | – | – | –
4 | O=C(CN1CCC(OC2CCN(C(=O)c3c(F)cc(-c4ccnnc4)cc3F)CC2)CC1)N1CCN(C(=O)c2cc(Cc3n[nH]c(=O)c4ccccc34)ccc2F)CC1 [Compound I-772] | 10 to 100 nM | 100 to 1000 nM | < 10 nM | 100 to 1000 nM | < 10 nM | – | – | – | – | –
5 | CC1(OC2CCN(CC(=O)N3CCN(C(=O)c4cc(Cc5n[nH]c(=O)c6ccccc56)ccc4F)CC3)CC2)CCN(C(=O)[C@H](NC(=O)c2cccc(C3CCCN(C(=O)C45CC(C4)C5)C3)c2F)C2CCCCC2)CC1 (stereo partly drawn) [Compound I-892] | 100 to 1000 nM | 100 to 1000 nM | 10 to 100 nM | 100 to 1000 nM | 10 to 100 nM | – | – | – | – | –
6 | CCc1cccc(-c2cnc(C(=O)NC34CCC(CN5CCN(CC(=O)N6CCN(C(=O)c7cc(Cc8n[nH]c(=O)c9ccccc89)ccc7F)CC6)CC5)(CC3)OC4)c(NC(=O)OC(C)(C)C)c2)c1 [Compound I-800] | 100 to 1000 nM | 100 to 1000 nM | < 10 nM | 100 to 1000 nM | 10 to 100 nM | – | – | – | – | –
7 | CC(C)(C)OC(=O)Nc1cc(-c2cccc(C#N)c2)cnc1C(=O)NCCOCCNCC(=O)N1CCN(C(=O)c2cc(Cc3n[nH]c(=O)c4ccccc34)ccc2F)CC1 [Compound I-818] | 10 to 100 nM | 100 to 1000 nM | < 10 nM | 10 to 100 nM | 100 to 1000 nM | – | – | – | – | –
8 | O=C(c1cc(Cc2n[nH]c(=O)c3ccccc23)ccc1F)N1CCN(C(=O)C2CC2)CC1 [Olaparib, reference compound] | – | 1000 to 10000 nM | 10 to 100 nM | 1000 to 10000 nM | – | – | – | – | – | < 10 nM
9 | O=C(CN1CCC(OC2CCN(C(=O)c3c(F)cc(-c4cccnn4)cc3F)CC2)CC1)N1CCN(C(=O)c2cc(Cc3n[nH]c(=O)c4ccccc34)ccc2F)CC1 [Compound I-771] | < 10 nM | 100 to 1000 nM | < 10 nM | 100 to 1000 nM | 10 to 100 nM | – | – | – | – | –
10 | CC1(OC2CCN(CC(=O)N3CCN(C(=O)c4cc(Cc5n[nH]c(=O)c6ccccc56)ccc4F)CC3)CC2)CCN(C(=O)[C@H](NC(=O)c2cccc(C3CCCN(C(=O)C4(C)CC4)C3)c2F)C2CCCCC2)CC1 (stereo partly drawn) [Compound I-893] | 100 to 1000 nM | 100 to 1000 nM | 10 to 100 nM | 100 to 1000 nM | 10 to 100 nM | – | – | – | – | –
11 | O=C(CN1CCN(C[C@@H]2C[C@@H]3CC[C@H]2CN3C(=O)c2c(F)cc(-c3ccccc3)cc2F)CC1)N1CCN(C(=O)c2cc(Cc3n[nH]c(=O)c4ccccc34)ccc2F)CC1 [Compound I-777] | 10 to 100 nM | 10 to 100 nM | < 10 nM | 10 to 100 nM | – | – | – | – | – | –
12 | O=C(CN1CCN(CC2CCN(C(=O)c3c(F)cc(-c4ccccn4)cc3F)CC2)CC1)N1CCN(C(=O)c2cc(Cc3n[nH]c(=O)c4ccccc34)ccc2F)CC1 [Compound I-769] | < 10 nM | 10 to 100 nM | < 10 nM | 10 to 100 nM | < 10 nM | – | – | – | – | –
13 | CCc1cccc(-c2cnc(C(=O)NCCOCCNCC(=O)N3CCN(C(=O)c4cc(Cc5n[nH]c(=O)c6ccccc56)ccc4F)CC3)c(N)c2)c1 [Compound I-402] | 10 to 100 nM | 10 to 100 nM | < 10 nM | 10 to 100 nM | 100 to 1000 nM | – | – | – | – | –
14 | CCc1cccc(-c2cc(F)c(C(=O)N3CCC(OC4CCN(CC(=O)N5CCN(C(=O)c6cc(Cc7n[nH]c(=O)c8ccccc78)ccc6F)CC5)CC4)CC3)c(F)c2)c1 [Compound I-590] | < 10 nM | 10 to 100 nM | < 10 nM | < 10 nM | 10 to 100 nM | – | – | – | – | –
15 | CCc1cccc(-c2cc(F)c(C(=O)N3CC4CCC3CC4CN3CCN(CC(=O)N4CCN(C(=O)c5cc(Cc6n[nH]c(=O)c7ccccc67)ccc5F)CC4)CC3)c(F)c2)c1 (stereo not drawn) [Compound I-690] | 10 to 100 nM | 10 to 100 nM | < 10 nM | 100 to 1000 nM | 10 to 100 nM | – | – | – | – | –
16 | CC(C)(C)OC(=O)N[C@@H](C(=O)N1CC[C@H](OC2CCN(CC(=O)N3CCN(C(=O)c4cc(Cc5n[nH]c(=O)c6ccccc56)ccc4F)CC3)CC2)C1)C1CCCCC1 [Compound I-875] | 100 to 1000 nM | 100 to 1000 nM | < 10 nM | 100 to 1000 nM | 100 to 1000 nM | – | – | – | – | –
17 | O=C(CN1CCN(C[C@@H]2C[C@H]3CC[C@@H]2CN3C(=O)c2c(F)cc(-c3ccccc3)cc2F)CC1)N1CCN(C(=O)c2cc(Cc3n[nH]c(=O)c4ccccc34)ccc2F)CC1 [Compound I-774] | 10 to 100 nM | 10 to 100 nM | < 10 nM | 10 to 100 nM | – | – | – | – | – | –
18 | C[C@@H]1CN(CC2CCN(CC(=O)N3CCN(C(=O)c4cc(Cc5n[nH]c(=O)c6ccccc56)ccc4F)CC3)CC2)CCN1C(=O)[C@H](NC(=O)c1cccc([C@@H]2CCCN(C(=O)C(C)(C)C)C2)c1)C1CCCCC1 [Compound I-973] | 100 to 1000 nM | 100 to 1000 nM | 10 to 100 nM | 100 to 1000 nM | – | – | – | – | – | –
19 | CC(C)(C)C(=O)N1CCC[C@@](F)(c2cccc(C(=O)N[C@@H](C(=O)N3CCC(OC4CCN(CC(=O)N5CCN(C(=O)c6cc(Cc7n[nH]c(=O)c8ccccc78)ccc6F)CC5)CC4)CC3)C3CCCCC3)c2F)C1 [Compound I-994] | 100 to 1000 nM | 10 to 100 nM | < 10 nM | 10 to 100 nM | – | – | – | – | – | –

Reference: patent publication US20250127907A1, “PARP INHIBITORS” (Stablix, Inc., priority 2023, published 2025)
